One data set concerns U87MG. The data set can be described thus: Cell viability, glioblastoma U87MG. The class given is cell-based. The note with it: Homo sapiens, U-87 MG; glioblastoma cell line. Here is the method:
(§1) The anti-cancer efficacy of exemplary compounds of the application were assessed in vitro against different cancer cell lines. […] 1×10^4 cells/well were plated in 96-well assay plates in culture medium. […] In some instances, FBS was removed for periods ranging from 16-24 hours, and re-introduced with test compound addition. After 24 hrs, test compounds and vehicle controls were added to appropriate wells such that the final volume was 100 μl in each well. The cells were cultured for the desired test exposure period (72 hours) at 37° C. and 5% CO2. The assay plates were removed from […] incubator and 20 μl/well of CellTiter-Blue® Reagent was added. The plates were incubated using standard cell culture conditions for 1-4 hours. Afterwards, the plates were shaken for 10 seconds and florescence was recorded at 560/590 nm using a Cytation 3 spectrophotometer. IC50 values were determined using non-linear regression analysis with GraphPad Prism 6.0 (GraphPad Software Inc.).

Another data set deals with AR230. The data set can be described thus: Cell viability, CML AR230. The format is cell-based. As to conditions: Table 4. As to the method: (§2) The anti-cancer efficacy of exemplary compounds of the application were assessed in vitro against different cancer cell lines. Cell viability was examined following treatment at various concentrations of inhibitor (0.097656-50 μM) using a CellTiter-Blue® cell viability assay. 1×10^4 cells/well were plated in 96-well assay plates in culture medium. All cells were grown in DMEM, IMDM and RPMI-1640 supplemented with 10% fetal bovine serum (FBS). In some instances, FBS was removed for periods ranging from 16-24 hours, and re-introduced with test compound addition. After 24 hrs, test compounds and vehicle controls were added to appropriate wells such that the final volume was 100 μl in each well. The cells were cultured for the desired test exposure period (72 hours) at 37° C. and 5% CO2. The assay plates were removed from […] incubator and 20 μl/well of CellTiter-Blue® Reagent was added. The plates were incubated using standard cell culture conditions for 1-4 hours. Afterwards, the plates were shaken for 10 seconds and florescence was recorded at 560/590 nm using a Cytation 3 spectrophotometer. IC50 values were determined using non-linear regression analysis with GraphPad Prism 6.0 (GraphPad Software Inc.). […]

A further data set concerns U118MG. The data set can be described thus: Cell viability, glioblastoma U118MG. The class given is cell-based. As to conditions: Homo sapiens, U-118-MG; glioblastoma cell line. Here is the method: as §1
For data set [1], the system named is healthy human lung cells (MRC9). The data set can be described thus: CellTiter-Blue cell viability, MRC9. The format is cell-based. The note with it: non-cancerous, 72 hours. Summed up:
(§3)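 Cells were seeded at 1×10^4/well, grown 24 h in FBS-supplemented medium, then exposed to compound (0.097656–50 μM) for 72 h at 37° C, 5% CO2. Viability was read by CellTiter-Blue fluorescence (560/590 nm) after 1–4 h reagent incubation, with IC50 derived by non-linear regression.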
Background: Resazurin is reduced to fluorescent resorufin, in cell work by metabolically active cells.

Data set [2] can be described thus: Stability to glutathione, half-life by 19F NMR.
Another data set can be described thus: in vitro. The note with it: male, mouse. Here is the method: The reaction mixture was constituted with 100 mM phosphate buffer, ultra-pure H2O, 5 mM MgCl2 solution, 10 mM NADPH solution and 1 mg/mL S9 fraction. This mixture was then pre-warmed at 37° C. for 5 minutes. […] Aliquots of 50 μL were taken from the reaction solution at 0, 15, 30, 45 and 60 minutes. The aliquoted reaction solutions were stopped by the addition of a mixture of cold methanol and IS (100 nM alprazolam, 200 nM imipramine, 200 nM labetalol and 2 μM ketoprofen). The samples were then centrifuged at 3220 g for 40 minutes. Afterwards, aliquots of 90 μL of the supernatant for each sample was mixed with 90 μL of ultra-pure water and subjected to liquid chromatography tandem mass spectrometry (LC-MS/MS) analysis.
Injection volume was 10 μL.

In a further data set the target is T1, UBA5 (Homo sapiens, UniProt Q9GZZ9).
T1 construct: Constructs of full length human UBA5 (1-404) were cloned into a pET28b(+) vector; His-SUMO (N, cleaved yes); made in house; host or cells: E. coli BL21 (DE3) RILP
In words: 19F NMR study of covalent modification of UBA5. As to conditions: 100 μM compound, 100 μM UBA5, 2 hours at 37° C. The format is binding. As to the method:
Spectra were normalized and referenced according to the fluorine peak of 5-fluoro-Trp.
To assess potential reactivity of I-1 against Cys containing proteins, a series of ^19F NMR studies were conducted with BSA, lysozyme, STAT3, and STATS. […] All samples were prepared in 100 mM HEPES pH 7.4, and 100 μM 5-fluoro-Trp, with a final concentration of 10% D20 and 10% DMSO. The samples were incubated for 2 hours at 37° C. prior to data collection. All spectra were normalized and referenced according to the fluorine peak of 5-fluoro-Trp.
To evaluate covalent modification of UBA5 by I-1, ^19F NMR studies were conducted in accordance with the procedure described in Example 80.

The next data set concerns bromodomains. The data set can be described thus: BROMOscan bromodomain screen (DiscoverX). The class given is binding. The note with it: 10 μM. As to the method:
T7 phage strains displaying bromodomains were grown in parallel in 24-well blocks in an E. coli host derived from the BL21 strain. E. coli were grown to log-phase and infected with T7 phage from a frozen stock (multiplicity of infection=0.4) and incubated with shaking at 32° C. until lysis (90-150 minutes). The lysates were centrifuged (5,000×g) and filtered (0.2 μm) to remove cell debris. […] The liganded beads were blocked with excess biotin and washed with blocking buffer (SeaBlock (Pierce), 1% BSA, 0.05 Tween 20, 1 mM DTT) to remove unbound ligand and to reduce non-specific phage binding. […] Test compounds were prepared as 1000× stocks in 100% DMSO and subsequently diluted 1:25 in monoethylene glycol (MEG). The compounds were then diluted directly into the assays such that the final concentrations of DMSO and MEG were 0.1% and 2.4%, respectively. All reactions were performed in polypropylene 384-well plates in a final volume of 0.02 ml. […] The bromodomain concentration in the eluates was measured by qPCR.
I-1 test compound was tested at 10 μM, and results for primary screen binding interactions are reported as ‘% Ctrl,’ where lower numbers indicate stronger hits in the matrix. % Ctrl is calculated with the following formula:
test compound=I-1 negative control=DMSO (100% Ctrl) positive control=control compound (0% Ctrl)

The test system of a further data set is A-172. In words: Cell viability, glioblastoma A-172. The format is cell-based. As to conditions: Homo sapiens, glioblastoma cell line. As to the method:
as §1

The subject of a further data set is MOLM13. The data set can be described thus: CellTiter-Blue cell viability, MOLM13. The format is cell-based. As to conditions: Homo sapiens, MOLM-13. Summed up:
as §3

The test system of a further data set is AR230R. In words: Cell viability, CML AR230R. The note with it: Table 4. The class given is cell-based. Here is the method: as §2
Another data set has as its system tubulin. The data set can be described thus: Tubulin polymerization assay. As to conditions: 10 μM compound, optical density 340 nm. The class given is biochemical.
A further data set has as its target hERG channel (Homo sapiens, UniProt Q12809). The data set can be described thus: cell-based.

Each structure is given as a SMILES string. Entries after “also recorded” stand apart in the source; their conditions may differ.

T1 sequence (Q9GZZ9 whole entry): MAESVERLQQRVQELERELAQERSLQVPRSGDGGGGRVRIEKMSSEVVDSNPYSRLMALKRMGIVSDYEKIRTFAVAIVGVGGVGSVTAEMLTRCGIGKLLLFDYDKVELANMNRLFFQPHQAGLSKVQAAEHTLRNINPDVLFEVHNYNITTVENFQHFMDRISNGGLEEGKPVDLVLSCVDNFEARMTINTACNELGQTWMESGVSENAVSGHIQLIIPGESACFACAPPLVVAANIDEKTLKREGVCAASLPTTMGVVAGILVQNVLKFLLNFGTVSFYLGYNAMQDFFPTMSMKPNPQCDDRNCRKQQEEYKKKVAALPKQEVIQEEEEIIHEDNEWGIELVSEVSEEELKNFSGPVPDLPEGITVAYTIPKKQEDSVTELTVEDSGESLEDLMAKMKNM
Chain of hERG channel (Q12809 whole entry): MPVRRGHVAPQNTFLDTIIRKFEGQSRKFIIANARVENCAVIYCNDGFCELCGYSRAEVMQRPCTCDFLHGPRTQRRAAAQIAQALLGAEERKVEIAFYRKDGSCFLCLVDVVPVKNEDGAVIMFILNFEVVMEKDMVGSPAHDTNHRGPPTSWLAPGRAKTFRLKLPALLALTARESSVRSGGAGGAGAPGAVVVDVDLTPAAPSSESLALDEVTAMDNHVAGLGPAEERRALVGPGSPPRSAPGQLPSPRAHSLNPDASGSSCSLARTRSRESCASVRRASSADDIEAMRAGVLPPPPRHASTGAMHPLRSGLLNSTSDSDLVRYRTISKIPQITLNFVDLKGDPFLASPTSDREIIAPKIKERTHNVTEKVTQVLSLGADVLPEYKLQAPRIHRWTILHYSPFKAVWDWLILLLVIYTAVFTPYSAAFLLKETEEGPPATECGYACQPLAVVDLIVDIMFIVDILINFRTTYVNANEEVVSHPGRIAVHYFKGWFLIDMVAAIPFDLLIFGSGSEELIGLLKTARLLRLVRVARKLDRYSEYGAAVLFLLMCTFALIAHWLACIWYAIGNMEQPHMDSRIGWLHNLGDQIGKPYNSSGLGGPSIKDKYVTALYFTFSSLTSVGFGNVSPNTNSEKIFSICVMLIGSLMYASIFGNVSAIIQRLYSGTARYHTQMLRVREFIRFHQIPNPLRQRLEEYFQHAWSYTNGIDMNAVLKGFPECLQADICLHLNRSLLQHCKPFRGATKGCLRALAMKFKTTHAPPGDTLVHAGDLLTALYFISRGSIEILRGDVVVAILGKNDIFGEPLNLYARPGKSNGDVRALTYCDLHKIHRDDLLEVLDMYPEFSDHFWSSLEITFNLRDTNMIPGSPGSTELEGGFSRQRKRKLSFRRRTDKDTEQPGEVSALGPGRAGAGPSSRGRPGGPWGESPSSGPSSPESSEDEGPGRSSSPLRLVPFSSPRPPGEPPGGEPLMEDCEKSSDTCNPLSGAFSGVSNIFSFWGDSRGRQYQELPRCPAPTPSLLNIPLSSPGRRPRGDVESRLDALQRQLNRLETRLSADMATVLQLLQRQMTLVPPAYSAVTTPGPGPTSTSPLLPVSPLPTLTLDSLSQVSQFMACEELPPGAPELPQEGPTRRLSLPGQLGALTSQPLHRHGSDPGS

Take `O=S(=O)(c1c(F)c(F)c(F)c(F)c1F)N(Cc1ccc(F)cc1)C1CC1` [Compound I-1, N-cyclopropyl-2,3,4,5,6-pentafluoro-N-(4-fluorobenzyl)benzenesulfonamide]: the IC50 with U87MG turned out to be 2.87 µM; with AR230, 4.1 µM; in the data set on U118MG, 10.3 µM; in data set [1], 25 µM; with A-172, 7.16 µM; in the data set with MOLM13 (AML cell line, 72 hours), 1.5 µM. Besides, the IC50 with MOLM13 (AML, Table 4) is 2.5 µM; in the data set on AR230R, 1.5 µM; against hERG channel, 17.3 µM. For the same compound, in data set [2], the “increase in T1/2 as compared to Batabulin” value is reported as “greater than 7 fold”. Moreover, in “in vitro” (s9), the half-life at 2 μM stood at 232 h. For the same compound, in the data set “in vitro” (s9), the intrinsic clearance (microsomal CLint) at 2 μM came out at 0.05 µL/min/mg. Further, the “Remaining Percentage 0 min” value in “in vitro” (s9, 0 h, 2 μM) turned out to be 100.00%. For the same compound, at UBA5, the “covalent modification of UBA5 (free fluoride detection)” value is on record as “Fluoride was released; also recorded: covalently modifies UBA5”. For the same compound, the “competitive binding / inhibition of 32 bromodomain targets” value in the data set on bromodomains was “negligible competitive binding; also recorded: does not inhibit”. In the data set on tubulin, the “inhibition of tubulin polymerization” value is reported as “Negligible inhibition; also recorded: no significant inhibitory action”.

A word on the IC50: it is the concentration needed to halve the response being measured. Read a low IC50 as greater potency. In general, half-life refers to how long it takes for the measured level to halve. A lower half-life goes with fast loss. The term microsomal CLint denotes a measure of how fast metabolising enzymes remove a compound, apart from limits set by blood flow.
